Key:
[1] = Vasodilator activity in Sprague-Dawley rat mesentric artery assessed as reduction in of K+-induced contraction; type: functional, Mesenteric artery
[2] = Vasodilator activity in Sprague-Dawley rat mesentric artery assessed as reduction in of K+-induced contraction relative to control; type: functional; conditions: Mesenteric artery

| Structure (SMILES) | pEC50 [1] | Emax [2] |
| --- | --- | --- |
| CCOC(=O)c1ccccc1-c1c2ccoc2c(OCCN2CCCC2)c2oc(=O)ccc12 | 5.15 | 100% |
| CC(C)=CCOc1c2occc2cc2ccc(=O)oc12 [PENTOSALEN] | 4.95 | 85.6% |
| CCOC(=O)c1ccccc1-c1c2ccoc2c(OCCN2CCCCC2)c2oc(=O)ccc12 | 5.38 | 113% |
| COc1ccc(CCN(C)CCCC(C#N)(c2ccc(OC)c(OC)c2)C(C)C)cc1OC (stereo not drawn) [VERAPAMIL] | 7.51 | 95.8% |
| COC(=O)c1ccccc1-c1c2ccoc2c(OCCN2CCCC2)c2oc(=O)ccc12 | 4.71 | 102% |
| CCOC(=O)c1ccccc1-c1c2ccoc2c(OCCN2CCOCC2)c2oc(=O)ccc12 | 5.81 | 113% |
| COC(=O)c1ccccc1-c1c2ccoc2c(OCCN2CCCCC2)c2oc(=O)ccc12 | 5.35 | 116% |
| COC(=O)c1ccccc1-c1c2ccoc2c(OCCN(C)C)c2oc(=O)ccc12 | 5.27 | 102% |
| COC(=O)c1ccccc1-c1c2ccoc2c(OCCN2CCOCC2)c2oc(=O)ccc12 | 5.59 | 100% |
